How the values were obtained:
Felis catus [1] = experiment: Numerical score on cat behavior was measured at a dose of 10 mg/kg, administered subcutaneously.; assay type: functional; conditions: route subcutaneous
Rattus norvegicus [2] = experiment: Minimal dose (ip) required to produce a significant increase in avoidance responding in rat; assay type: functional; conditions: read-out: MED
Rattus norvegicus [3] = species: Rattus norvegicus; experiment: Evaluated for intertrial interval activity in rat; NE means no statistically significant effect; assay type: functional, organism-based
Rattus norvegicus [4] = species: Rattus norvegicus; experiment: Potency to produce a significant increase in avoidance responding in rat relative to BL-3912A; assay type: functional
Rattus norvegicus [5] = species: Rattus norvegicus; experiment: Evaluated for intertrial interval activity in rat; statistically significant increase; assay type: functional, organism-based
Felis catus [6] = experiment: Numerical score on cat behavior was measured at a dose of 10 mg/kg administered subcutaneously; assay type: functional; conditions: route subcutaneous
Rattus norvegicus [7] = species: Rattus norvegicus; experiment: Evaluated for intertrial interval activity in rat; NE means no statistically significant activity; assay type: functional, organism-based

Structure (SMILES): CC[C@@H](N)Cc1cc(OC)c(I)cc1OC.Cl
- Cat score (Felis catus [1]): 2.5

Structure (SMILES): CCC(N)Cc1cc(OC)c(Br)cc1OC.Cl (racemic)
- Cat score (Felis catus [1]): 2

Structure (SMILES): CC[C@@H](N)Cc1cc(OC)c(N)cc1OC.Cl
- Cat score (Felis catus [1]): 1.5

Structure (SMILES): CCOc1cc(OC)c(C[C@H](N)CC)cc1OC.Cl
- Cat score (Felis catus [1]): 1.5

Structure (SMILES): CC[C@@H](N)Cc1cc(OC)ccc1OC.Cl
- Cat score (Felis catus [1]; 10 mg/kg): 0.5

Structure (SMILES): CC[C@@H](N)Cc1cc(OC)c(C(C)C)cc1OC.Cl
- minimal effective dose (Rattus norvegicus [2]): > 20 mg/kg
- ITI activity (Rattus norvegicus [3]): No effect
- Relative potency (Rattus norvegicus [4]): <0.25
- Cat score (Felis catus [1]): 0

Structure (SMILES): CC[C@@H](N)Cc1cc(OC)c(Br)cc1OC.Cl
- ITI activity (Rattus norvegicus [5]): Statistically significant increase
- minimal effective dose (Rattus norvegicus [2]): 2 mg/kg
- Cat score (Felis catus [6]): 3.5
- Relative potency (Rattus norvegicus [4]): 2.5

Structure (SMILES): CCCOc1cc(OC)c(CC(N)CC)cc1OC.Cl (racemic)
- Cat score (Felis catus [1]): 0

Structure (SMILES): CCCc1cc(OC)c(CC(N)CC)cc1OC.Cl (racemic)
- Cat score (Felis catus [1]): 2.5

Structure (SMILES): CC[C@@H](N)Cc1cc(OC)c(OC(C)C)cc1OC.Cl
- Cat score (Felis catus [1]): 0

Structure (SMILES): CCc1cc(OC)c(C[C@@H](N)CC)cc1OC.Cl
- Cat score (Felis catus [1]): 1

Structure (SMILES): CC[C@@H](N)Cc1cc(OC)c(Cl)cc1OC.Cl
- minimal effective dose (Rattus norvegicus [2]): 20 mg/kg
- ITI activity (Rattus norvegicus [3]): No effect
- Relative potency (Rattus norvegicus [4]): 0.25
- Cat score (Felis catus [1]): 6.5

Structure (SMILES): CCC(N)Cc1cc(OC)c(SC)cc1OC.Cl (racemic)
- Cat score (Felis catus [1]): 1

Structure (SMILES): CC[C@H](N)Cc1cc(OC)c(C)cc1OC.Cl
- Cat score (Felis catus [6]): 0.5

Structure (SMILES): CCc1cc(OC)c(CC(N)CC)cc1OC.Cl (racemic)
- Cat score (Felis catus [6]): 4

Structure (SMILES): CCCCc1cc(OC)c(C[C@H](N)CC)cc1OC.Cl
- ITI activity (Rattus norvegicus [7]): No effect
- minimal effective dose (Rattus norvegicus [2]): > 20 mg/kg
- Relative potency (Rattus norvegicus [4]): <0.25
- Cat score (Felis catus [1]): 0

Structure (SMILES): CCC(N)Cc1cc(OC)ccc1OC.Cl (single isomer, unassigned)
- Cat score (Felis catus [1]; 10 mg/kg): 2

Structure (SMILES): CC[C@@H](N)Cc1cc(OC)c(C)cc1OC.Cl [DIMOXAMINE HYDROCHLORIDE]
- minimal effective dose (Rattus norvegicus [2]): 5 mg/kg
- Cat score (Felis catus [6]): 1.3
- ITI activity (Rattus norvegicus [3]): No effect
- Relative potency (Rattus norvegicus [4]): 1

Structure (SMILES): CCC(N)Cc1cc(OC)c(C(C)C)cc1OC.Cl (racemic)
- Cat score (Felis catus [1]): 0.5

Structure (SMILES): CCCc1cc(OC)c(C[C@H](N)CC)cc1OC.Cl
- ITI activity (Rattus norvegicus [5]): Statistically significant increase
- minimal effective dose (Rattus norvegicus [2]): 1 mg/kg
- Relative potency (Rattus norvegicus [4]): 5
- Cat score (Felis catus [1]): 0.5

Structure (SMILES): CCCOc1cc(OC)c(C[C@H](N)CC)cc1OC.Cl
- Cat score (Felis catus [1]): 1.5

Structure (SMILES): CC[C@@H](N)Cc1cc(OC)c([N+](=O)[O-])cc1OC.Cl
- Cat score (Felis catus [1]): 3.5

Structure (SMILES): CCc1cc(OC)c(C[C@H](N)CC)cc1OC.Cl
- ITI activity (Rattus norvegicus [5]): Statistically significant increase
- minimal effective dose (Rattus norvegicus [2]): 2 mg/kg
- Cat score (Felis catus [6]): 3.3
- Relative potency (Rattus norvegicus [4]): 2.5

Structure (SMILES): CCC(N)Cc1cc(OC)ccc1OC.Cl (racemic)
- Cat score (Felis catus [1]): 2

Structure (SMILES): CC[C@H](N)Cc1cc(OC)c(Br)cc1OC.Cl
- Cat score (Felis catus [1]): 2

Structure (SMILES): CC[C@@H](N)Cc1cc(OC)c(O)cc1OC.Cl
- Cat score (Felis catus [1]): 0.5

Structure (SMILES): CC[C@H](N)Cc1cc(OC)c(SC)cc1OC.Cl
- Cat score (Felis catus [1]): 1
